What was measured:
[1] = cited from earlier work
holo-transferrin = holo-transferrin (Homo sapiens, UniProt P02787); experiment: Fe removal from holo-transferrin by BBG ligand; format: biochemical; details: 24 h, pH 7.4, 37° C.
Method: Solutions of 20 μM holo-transferrin and BBG of concentration ranging between 0 and 100 μM (0-5 molar equivalents) were incubated for 24 h in pH 7.4 50 mM HEPES buffer supplemented with 25 mM carbonate at 37° C., and Fe removal from transferrin was monitored using fluorescence spectroscopy (excitation wavelength: 280 nm).
In another experiment, […] holo-transferrin and was incubated with 100 μM BBG (10 molar equivalents) for 24 h in pH 7.4 50 mM HEPES buffer supplemented with 25 mM carbonate at 37° C., and Fe removal monitored by urea gel electrophoresis assay, FIG. 11B.

[2] = pH-potentiometric titration, Zn2+ complex; format: physicochemical; details: pH 7.4
Method: (§1) The aqueous solutions thermodynamics of BBG and its corresponding complexes of Fe^3+, Cu^2+, and Zn^2+ were interrogated through pH-potentiometric titration of BBG (L) in the absence and presence of 1 molar equivalent of Fe^3+, Cu^2+, or Zn^2+, FIG. 13A.
(§2) pH-potentiometric measurements were performed using an Orion ROSS Ultra pH electrode and temperature-controlled reaction vessel held at 310 K. A standardized solution of 0.10 M NaOH was used as the titrant. The electrode was calibrated prior to each titration by titrating a standardized HCl(aq) solution at ionic strength 0.10 using NaCl as the inert electrolyte with the standardized NaOH titrant. A working slope and intercept were generated by plotting mV as a function of calculated pH, which enabled direct conversion of electrode readings to [H^+] during sample titrations. pH values recorded during the titrations refers to hydrogen ion concentration. All titration samples were prepared in solutions of 0.10 M NaCl in distilled, deionized water. Ligand solutions were prepared by dissolving a weighed quantity into water and concentration was determined from the effective weight of the ligand and confirmed by the quantity of NaOH required to consume 1 molar equivalent of ligand proton. […]

[3] = Human blood plasma incubation, ultrafiltration and ICP-MS of metals; details: 0-5 mM BBG, 1 h, 37° C., 10 kDa cutoff
Method: The plasma concentrate and ultrafiltrate were assayed for concentrations of Cu and Zn, as well as Mn, Mg, and Ca by ICP-MS.
To illustrate this point, human blood plasma samples containing between 0-5 mM BBG were incubated for 1 h at 37° C. before separation of the low-molecular weight solution components by ultrafiltration through a 10 kDa molecular weight cutoff filter. The plasma concentrate and ultrafiltrate were assayed for concentrations of Cu and Zn, as well as Mn, Mg, and Ca by ICP-MS, FIG. 14.

[4] = pH-potentiometric titration, Cu2+ complex; format: physicochemical; details: pH 7.4
Method: as §1, §2

[5] = Stability of Fe-BBG against trans-chelation by endogenous chelators (UV-vis); format: physicochemical
Text: In other words, the ligand BBG binds to Fe^3+ with an estimated 230±40 times higher affinity than citrate.

holo-transferrin, sequence (P02787 20-698): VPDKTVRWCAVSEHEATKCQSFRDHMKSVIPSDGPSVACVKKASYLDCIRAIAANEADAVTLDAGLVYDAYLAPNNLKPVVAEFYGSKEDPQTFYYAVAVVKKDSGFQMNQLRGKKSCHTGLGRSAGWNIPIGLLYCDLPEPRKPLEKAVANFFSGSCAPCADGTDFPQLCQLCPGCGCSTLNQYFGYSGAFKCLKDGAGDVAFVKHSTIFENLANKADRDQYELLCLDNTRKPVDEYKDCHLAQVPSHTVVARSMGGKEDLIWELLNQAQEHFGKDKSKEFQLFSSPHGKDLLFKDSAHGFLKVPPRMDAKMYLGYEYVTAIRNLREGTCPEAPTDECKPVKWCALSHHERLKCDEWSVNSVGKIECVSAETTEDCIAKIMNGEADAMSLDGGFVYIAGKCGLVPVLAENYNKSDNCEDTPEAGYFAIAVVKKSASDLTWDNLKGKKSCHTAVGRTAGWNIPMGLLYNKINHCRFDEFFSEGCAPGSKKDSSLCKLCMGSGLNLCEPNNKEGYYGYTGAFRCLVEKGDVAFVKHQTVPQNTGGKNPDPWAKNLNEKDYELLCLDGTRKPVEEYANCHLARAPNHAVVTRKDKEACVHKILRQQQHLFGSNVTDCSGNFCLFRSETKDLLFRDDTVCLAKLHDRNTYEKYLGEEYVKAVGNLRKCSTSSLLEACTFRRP

Molecule	log Kcond at pH 7.4 for Fe^3+, first binding site [1]	log Kcond at pH 7.4 for Fe^3+, second binding site [1]	Fe removal from transferrin (urea gel electrophoresis) (holo-transferrin; 10 μM holo-transferrin, 100 μM BBG (10 molar equivalents))	Fe removal from transferrin (fluorescence spectroscopy) (holo-transferrin; 20 μM holo-transferrin, 0-100 μM BBG)	greater stability of Fe^3+ binding than Zn^2+ [2]	metal ion content remaining in the plasma concentrate [3]	greater stability of Fe^3+ binding than Cu^2+ [4]	Fe^3+ affinity relative to endogenous chelators [5]	Fe^3+ affinity relative to citrate ([5]; estimated from citrate challenge) [times]
transferrin: the iron carrier protein transferrin	about 20.7	~19.4	–	–	–	–	–	–	–
O=C(O)CC[C@@H](C(=O)O)N(Cc1ccccc1O)Cc1ccccc1O [BBG, N,N-bis(2-hydroxybenzyl)-L-glutamic acid]	–	–	No evidence of Fe removal	No evidence of Fe removal	15 orders of magnitude	little effect	9 orders of magnitude	substantially higher affinity	230±40
